The subject of series [1] is T cells isolated from mouse spleens. Nature of the series: T cell proliferation inhibition (CFSE flow cytometry, anti-CD3/anti-CD28 stimulation). The note with it: three days. The series is classed as cell-based, C57BL/6 mice. In a few lines:
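Splenic T cells from 7-week-old C57BL/6 mice, CFSE-labelled, 2× 10^5 cells/well, stimulated with anti-CD3 and anti-CD28 (0.5 μg/mL each). Compound at 10 nM-50 μM in triplicate for three days at 37 °C, 5% CO2; proliferation inhibition (%) derived by flow cytometry.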

Series [2] deals with HCT-116 colon cancer cell lines. The series is described as follows: Matrigel Invasion Assay on HCT-116 colon cancer cell line. It is filed as cell-based, human. The note with it: HCT-116, Matrigel, 24 hours treatment, vs DMSO. How it is done: To evaluate the metastasis inhibitory efficacy of the compounds of the present invention on HCT-116 colon cancer cell lines, an Invasion Assay using Matrigel was performed to assess the cells' invasion ability.
First, Matrigel was thawed on ice in RPMI-1640 medium without FBS, then diluted with DMEM at a ratio of 1:20.
The diluted Matrigel mixture was applied to the upper chamber at 100 μl per well, and 750 μl of RPMI-1640 without FBS was added to the lower chamber.
The plates were then incubated at 37° C. for 1 hour to allow the Matrigel to solidify.
After coating, the Matrigel mixture in the upper chamber was removed using a pipette, and the chamber was washed with RPMI without FBS.
Human-derived colorectal cancer cell line HCT-116, obtained from the Korean Cell Bank, was cultured in RPMI-1640 medium containing 10% FBS.
Following stabilization, the cells were harvested using Trypsin-EDTA treatment, centrifuged at 1,200 rpm for 3 minutes, the supernatant was removed, and the cells were resuspended in the same medium, the medium in the lower chamber was replaced with 750 μl of RPMI-1640 supplemented with 10% FBS, and the cells were seeded into the upper chamber at a density of 5×10^4 cells/well.
The cells were cultured for 24 hours after attachment, and then the compounds according to the present invention (G078, G085, G086, G088, G089, PBK-2024-010, PBK-2025-010, PBK-2025-013, PBK-2025-016) and the control substance DMSO were diluted and added to the upper chamber after removing the medium.
Additionally, the medium in the lower chamber was replaced with fresh RPMI-1640 containing FBS, and the culture was continued.
After an additional 24 hours, the medium was removed, and 1 ml of methanol was added for 10 minutes to fix the cells.
Subsequently, 1 ml of Hematoxylin was added and reacted for 5 minutes, followed by 1 ml of Eosin, which was reacted for 30 seconds. The sample was then washed with distilled water (DW).
After staining was complete, any remaining cells in the upper chamber were removed. Finally, the infiltrated cells were observed under a microscope, photographed, and the degree of infiltration was analyzed.

Series [3] deals with MRL/lpr mice with hair loss in the facial region. The series is described as follows: Hair loss treatment and hair follicle Ki-67 IHC in MRL/lpr mice. It is filed as in vivo. The note with it: 41-week-old female MRL/lpr; GO15F (30 mg/kg), GO48 (1 mg/kg), GO88 (0.5 mg/kg) intraperitoneal once daily. How it is done: Additionally, in 41-week-old female MRL/Ipr mice, the compounds GO15F (30 mg/kg), GO48 (1 mg/kg), and GO88 (0.5 mg/kg) were administered intraperitoneally once daily.
To confirm the proliferative activity of hair follicle cells in the skin tissue of these mice, the mice were sacrificed 14 days after administration of the compounds of the present invention, and Ki-67 immunohistochemistry (IHC) was performed.
For this purpose, the excised skin tissue was fixed in formalin, embedded in paraffin blocks, and stained with a Ki-67-specific antibody on tissue sections prepared as slides.

The subject of series [4] is PDK1 phosphorylation in SU-DHL-8 cells. The series is described as follows: PDK1 phosphorylation inhibition by flow cytometry (pPDK1-PE) in SU-DHL-8 cells. It is filed as cell-based, human. The note with it: SU-DHL-8, 24 hours, vs control group, listed as GO48. How it is done:
After stabilizing the cells, the compound of the present invention was added, and the cells were cultured for 24 hours.
After drug treatment, the cells were harvested, and the Fc receptor blocking process was performed. The cells were then fixed and permeabilized using the Intracellular Staining Kit (Cat. No. BD554715) from BD Biosciences. Subsequently, the intracellular pPDK1 was stained using the pPDK1-PE fluorescently labeled antibody (BD Biosciences).
Referring to the figure, the vertical axis represents the phosphorylation level of PDK1 (phospho-PDK1 expression level), and the horizontal axis denotes the concentration-dependent treatment conditions of each compound.
(Flow cytometry measures light scatter and fluorescence of single cells or particles in a stream.)

The test system of series [5] is Human B Lymphocyte cell line, SU-DHL-8. The series is described as follows: Relative cell viability, SU-DHL-8 (CCK-8). It is filed as cell-based. The note with it: 48 hours, untreated (DMSO) = 100%. How it is done: Human-derived B lymphoma cell line SU-DHL-8 (Cat. #CRL-2961) purchased from ATCC was cultured in RPMI-1640 medium containing 10% FBS, 100 U/mL penicillin, and 100 μg/mL streptomycin.
The cell culture medium was then harvested, centrifuged at 1,300 rpm for 5 minutes, and the supernatant was removed. The cells were resuspended in the same medium and dispensed into a 96-well plate (Costar 96-well cell culture plate, Corning) at 90 μL per well, resulting in the conditions specified in Table 5.
Then, 10 μL of CCK-8 was added to each well, and the plates were incubated again at 37° C. in a 5% CO2 incubator for 4 hours.
In other words, when the survival rate of untreated cells (DMSO) is set at 100%, the relative cell survival rate in each group treated with the drug at different concentrations is indicated.

The values that follow come from patent US20260183302A1, “PDK1 REGULATORY COMPOUND AND COMPOSITION CONTAINING THE SAME” (PROVIBIO CO., LTD., priority 2024, published 2026).

Entries after “also recorded” stand apart in the source; their conditions may differ.

For “12-(4-hydroxypiperazin-1-yl)dodecyl-N-(6-aminopurazin-2-yl) carboxamide [Compound 10]”, the “Proliferation inhibition rate (%)” value in series [1] (concentration 10 nM), in series [1] (concentration 100 nM), in series [1] (concentration 1 μM), in series [1] (concentration 10 μM), in series [1] (concentration 30 μM) and in series [1] (concentration 50 μM) was 100.00% throughout. Moreover, the “number of infiltrated cells (invasion)” value in series [2] is recorded as “reduction in the number of infiltrated cells”.

`Nc1ncccc1C(=O)NCCCCCCCCCCCCN1CCOCC1` [Compound 2, 2-amino-N-(12-morpholin-4-yl-dodecyl)-nicotinamide]: in series [3], the “hair growth on the facial region” value is “hair growth was confirmed”. For the same compound, the phospho-PDK1 expression level result in series [4] is on record as “stronger PDK1 inhibition; also recorded: high inhibitory effects even at low concentrations”.

In the case of `Nc1ncccc1C(=O)NCCCCCCCCCCCCN1CCNCC1` [Compound 5, 2-Amino-N-(12-(piperazin-1-yl)dodecyl)-nicotinamide], the “number of infiltrated cells (invasion)” value in series [2] is given as “reduction in the number of infiltrated cells”.

Regarding `O=C(NCCCCCCCCCCCCN1CCN2CCCC2C1)c1cccnc1` (stereo not drawn) [Compound 23, N-(12-(hexahydropyrrolo[1,2-a]pyrazin-2 (1H)-yl)dodecyl) nicotinamide], the “number of infiltrated cells (invasion)” value in series [2] is on record as “reduction in the number of infiltrated cells”.

Regarding `CC(C)(C)OC(=O)N[C@H]1CCN(CCCCCCCCCCCCNC(=O)c2cccnc2N)C1` [Compound 49, tert-Butyl(S)-(1-(12-(2-aminonicotinamido)dodecyl)pyrrolidin-3-yl) carbamate], the “Proliferation inhibition rate (%)” value in series [1] (concentration 100 nM), in series [1] (concentration 1 μM), in series [1] (concentration 10 μM), in series [1] (concentration 30 μM) and in series [1] (concentration 50 μM) was 100.00% each time. The “Relative cell viability (%)” value worked out at 8.93% in series [5] (SU-DHL-8, 1 μM); 8.02% in series [5] (SU-DHL-8, 10 μM); 7.48% in series [5] (SU-DHL-8, 30 μM); 4.09% in series [5] (SU-DHL-8, 50 μM). For the same compound, the “number of infiltrated cells (invasion)” value in series [2] is listed as “reduction in the number of infiltrated cells”.

On to `Nc1ncccc1C(=O)NCCCCCCCCCCCCN1CC(F)C1` [Compound 52, 2-Amino-N-(12-(3-fluoroazetidin-1-yl)dodecyl)nicotinamide], for which, in series [2], the “number of infiltrated cells (invasion)” value is listed as “reduction in the number of infiltrated cells”.

`COC1CCN(CCCCCCCCCCCCNC(=O)c2cccnc2N)C1` (stereo not drawn) [Compound 126, 2-amino-N-(12-(3-methoxypyrrolidin-1-yl)dodecyl) nicotinamide]: the “Proliferation inhibition rate (%)” value is 0.00% in series [1] (concentration 10 nM, listed as K-PB-48, 0.01 µM); 100.00% in series [1] (concentration 100 nM); 100.00% in series [1] (concentration 1 μM); 100.00% in series [1] (concentration 10 μM); 100.00% in series [1] (concentration 30 μM); 100.00% in series [1] (concentration 50 μM). Moreover, the “Relative cell viability (%)” value is listed as 33.03% in series [5] (SU-DHL-8, 1 μM, listed as K-PB-48, 1 µM); 31.98% in series [5] (SU-DHL-8, 10 μM, listed as K-PB-48, 10 µM); 32.32% in series [5] (SU-DHL-8, 30 μM, listed as K-PB-48, 30 µM); 30.44% in series [5] (SU-DHL-8, 50 μM, listed as K-PB-48, 50 µM).

On to `Nc1ncccc1C(=O)NCCCCCCCCCCCCN1CC=CC1` [Compound 129, 2-amino-N-(12-(2,5-dihydro-1H-pyrrol-1-yl)dodecyl) nicotinamide], for which the “Proliferation inhibition rate (%)” value in series [1] (concentration 10 nM) turned out to be 0.00%; in series [1] (concentration 100 nM) it was 90.00%; in series [1] (concentration 1 μM), 100.00%; in series [1] (concentration 10 μM), 100.00%; in series [1] (concentration 30 μM), 100.00%; in series [1] (concentration 50 μM) it was 100.00%. Moreover, the “Relative cell viability (%)” value in series [5] (SU-DHL-8, 1 μM) turned out to be 34.26%; in series [5] (SU-DHL-8, 10 μM), 33.99%; in series [5] (SU-DHL-8, 30 μM) it was 35.05%; in series [5] (SU-DHL-8, 50 μM), 34.27%.
